Assay results published in patent US11708348B2, “Protease inhibitors for treatment of coronavirus infections” (The Scripps Research Institute, priority 2021, dated 2023).

These molecules were tested on SARS-CoV-2 strain USA-WA1/2020 (assay: microbe, parasite or virus in culture). Settings: Severe acute respiratory syndrome coronavirus 2, HeLa-ACE2, 24 h, HeLa-ACE2 cells, SARS-CoV-2 infection, 24 h; class symbols; read-out: EC50, uM (Hela).
Assay type: cell-based
Work on `CC(C)C[C@H](NC(=O)[C@H](O)C(F)(F)F)C(=O)N[C@@H](C[C@@H]1CCNC1=O)C(=O)COC(F)(F)F` [Compound 384, (S)-4-methyl-N-((S)-3-oxo-1-((S)-2-oxopyrrolidin-3-yl)-4-(trifluoromethoxy)butan-2-yl)-2-((S)-3,3,3-trifluoro-2-hydroxypropanamido)-pentanamide] yielded an EC50 of 0.05 to 0.2 µM. For `CC(C)(C)[C@H](NC(=O)C(=O)Nc1ccccc1F)C(=O)N[C@@H](C[C@@H]1CCNC1=O)C(=O)COc1c(F)c(F)cc(F)c1F` [Compound 119, N1-((S)-3,3-dimethyl-1-oxo-1-(((S)-3-oxo-1-((S)-2-oxopyrrolidin-3-yl)-4-(2,3,5,6-tetrafluorophenoxy)butan-2-yl)amino)butan-2-yl)-N2-(2-fluorophenyl)oxalamide], the EC50 was 0.2 to 0.5 µM. Molecule `COCC1(NC(=O)C(=O)N[C@@H](CC2CC2)C(=O)N[C@@H](C[C@@H]2CCNC2=O)C(=O)COC(F)(F)F)COC1` [Compound 238, N1-((S)-3-cyclopropyl-1-oxo-1-(((S)-3-oxo-1 ((S)-2-oxopyrrolidin-3-yl)-4-(trifluoromethoxy)butan-2-yl)amino)propan-2-yl)-N2-(3-(methoxymethyl)oxetan-3-yl)oxalamide] has an EC50 of 0.2 to 0.5 µM. For `CC(C)(O)C(=O)N1C[C@@H]2CCC[C@@H]2[C@H]1C(=O)N[C@@H](C[C@@H]1CCNC1=O)C(=O)COC(F)(F)F` [Compound 352, (1S,3aR,6aS)-2-(2-hydroxy-2-methylpropanoyl)-N-((S)-3-oxo-1-((S)-2-oxopyrrolidin-3-yl)-4-(trifluoromethoxy)butan-2-yl)octahydrocyclo-penta[c]pyrrole-1-carboxamide], the EC50 was 0.05 to 0.2 µM. `COc1cccc2[nH]c(C(=O)N[C@@H](CC(C)C)C(=O)N[C@@H](C[C@@H]3CCCNC3=O)C(=O)COC(F)(F)F)cc12` [Compound 229, 4-methoxy-N-((S)-4-methyl-1-oxo-1-(((S)-3-oxo-1-((S)-2-oxopiperidin-3-yl)-4-(trifluoromethoxy)butan-2-yl)amino)pentan-2-yl)-1H-indole-2-carboxamide] was tested, and the EC50 was < 0.05 µM. `CC(C)CC[C@H](NC(=O)c1cc2cc(F)ccc2[nH]1)C(=O)N[C@@H](C[C@@H]1CCNC1=O)C(=O)COc1c(F)c(F)cc(F)c1F` [Compound 11, 5-fluoro-N-((S)-5-methyl-1-oxo-1-(((S)-3-oxo-1-((S)-2-oxopyrrolidin-3-yl)-4-(2,3,5,6-tetrafluorophenoxy)butan-2-yl)amino)hexan-2-yl)-1H-indole-2-carboxamide] showed an EC50 of 0.2 to 0.5 µM. With `CC(C)(C)CC(O)C(=O)N1C[C@@H]2CCC[C@@H]2[C@H]1C(=O)N[C@@H](C[C@@H]1CCNC1=O)C(=O)COC(F)(F)F` (stereo partly drawn) [Compound 348, (1S,3aR,6aS)-2-(2-hydroxy-4,4-dimethylpentanoyl)-N-((S)-3-oxo-1-((S)-2-oxopyrrolidin-3-yl)-4-(trifluoromethoxy)butan-2-yl)octahydrocyclo-penta[c]pyrrole-1-carboxamide] the EC50 was < 0.05 µM. For `O=C1NCC[C@H]1C[C@H](NC(=O)[C@@H]1CC2(CC2)CN1C(=O)C(O)c1cc(F)c(F)c(F)c1)C(=O)COC(F)(F)F` (stereo partly drawn) [Compound 399, (6S)-5-(2-hydroxy-2-(3,4,5-trifluorophenyl)acetyl)-N-((S)-3-oxo-1-((S)-2-oxopyrrolidin-3-yl)-4-(trifluoromethoxy)butan-2-yl)-5-azaspiro[2.4]heptane-6-carboxamide], the EC50 was 0.05 to 0.2 µM. In the case of `CC(C)C[C@@H](OC(=O)Nc1ccccc1)C(=O)N1CC2(CC2)C[C@H]1C(=O)N[C@@H](C[C@@H]1CCNC1=O)C(=O)COC(F)(F)F` [Compound 331, (R)-4-methyl-1-oxo-1-((S)-6-(((S)-3-oxo-l-((S)-2-oxopyrrolidin-3-yl)-4-(trifluoromethoxy)butan-2-yl)carbamoyl)-5-azaspiro[2.4]heptan-5-yl)pentan-2-yl phenylcarbamate], the EC50 is reported as < 0.05 µM. With `CC(C)C[C@H](NC(=O)c1cc(-c2ccccc2F)on1)C(=O)N[C@@H](C[C@@H]1CCNC1=O)C(=O)COc1c(F)c(F)cc(F)c1F` [Compound 67, 5-(2-fluorophenyl)-N-((S)-4-methyl-1-oxo-1-(((S)-3-oxo-1-((S)-2-oxopyrrolidin-3-yl)-4-(2,3,5,6-tetrafluorophenoxy)butan-2-yl)amino)pentan-2-yl)isoxazole-3-carboxamide] the EC50 was 0.2 to 0.5 µM.

Same assay, conditions: Severe acute respiratory syndrome coronavirus 2, HeLa-ACE2, 24 h, HeLa-ACE2 cells, SARS-CoV-2 infection, 24 h; given as bound; read-out: EC50, uM (Hela)
With `Cc1cccnc1NC(=O)C(=O)N1C[C@@H]2CCC[C@@H]2[C@H]1C(=O)N[C@@H](C[C@@H]1CCNC1=O)C(=O)COC(F)(F)F` [Compound 550, (1S,3aR,6aS)-2-(2-((3-methylpyridin-2-yl)amino)-2-oxoacetyl)-N-((S)-3-oxo-1-((S)-2-oxopyrrolidin-3-yl)-4-(trifluoromethoxy)butan-2-yl)octahydrocyclo-penta[c]pyrrole-1-carboxamide] the EC50 was > 1 µM. For `CC1(NC(=O)C(=O)N2[C@H](C(=O)N[C@@H](C[C@@H]3CCNC3=O)C(=O)COC(F)(F)F)CCC23CC3)CC1` [Compound 541, (S)-4-(2-((l-methyl-cyclopropyl)amino)-2-oxoacetyl)-N-((S)-3-oxo-1-((S)-2-oxopyrrolidin-3-yl)-4-(trifluoromethoxy)butan-2-yl)-4-azaspiro-[2.4]heptane-5-carboxamide], the EC50 was > 1 µM.

Same assay, conditions: Severe acute respiratory syndrome coronavirus 2, HeLa-ACE2, 24 h, HeLa-ACE2 cells, SARS-CoV-2 infection, 24 h; read-out: EC50, uM (Hela)
Work on `CC(F)(F)CNC(=O)C(=O)N1C[C@H]2[C@@H]([C@H]1C(=O)N[C@@H](C[C@@H]1CCNC1=O)C(=O)COC(F)(F)F)C2(C)C` [Compound 484, (1R,2S,5S)-3-(2-((2,2-difluoropropyl)amino)-2-oxoacetyl)-6,6-dimethyl-N-((S)-3-oxo-1-((S)-2-oxopyrrolidin-3-yl)-4-(trifluoromethoxy)butan-2-yl)-3-azabicyclo[3.1.0]-hexane-2-carboxamide] yielded an EC50 of 0.05 to 0.2 µM. `CC1(C)[C@@H]2[C@@H](C(=O)N[C@@H](C[C@@H]3CCNC3=O)C(=O)COC(F)(F)F)N(C(=O)c3csc(C(F)(F)F)n3)C[C@@H]21` [Compound 468, (1R,2S,5S)-6,6-dimethyl-N-((S)-3-oxo-1-((S)-2-oxopyrrolidin-3-yl)-4-(trifluoromethoxy)butan-2-yl)-3-(2-(trifluoromethyl)-thiazole-4-carbonyl)-3-azabicyclo[3.1.0]-hexane-2-carboxamide] showed an EC50 of 0.05 to 0.2 µM. In the case of `CC(C)(C)[C@H](NC(=O)OCc1ccccc1)C(=O)N1C[C@H]2[C@@H]([C@H]1C(=O)N[C@@H](C[C@@H]1CCNC1=O)C(=O)COC(F)(F)F)C2(C)C` [Compound 620, benzyl ((S)-1-((1R,2S,5S)-6,6-dimethyl-2-(((S)-3-oxo-1-((S)-2-oxopyrrolidin-3-yl)-4-(trifluoromethoxy)butan-2-yl)carbamoyl)-3-azabicyclo[3.1.0]hexan-3-yl)-3,3-dimethyl-1-oxobutan-2-yl)carbamate], the EC50 is reported as < 0.05 µM. `CC(C)C[C@H](NC(=O)CNC1(C(F)(F)F)CC1)C(=O)N[C@@H](C[C@@H]1CCNC1=O)C(=O)COC(F)(F)F` [Compound 434, (S)-4-methyl-N-((S)-3-oxo-1-((S)-2-oxopyrrolidin-3-yl)-4-(trifluoromethoxy)butan-2-yl)-2-(2-((1-(trifluoromethyl)-cyclopropyl)amino)-acetamido)pentanamide] was tested, and the EC50 was < 0.05 µM.

Same assay, conditions: Severe acute respiratory syndrome coronavirus 2, HeLa-ACE2, 24 h; read-out: EC50, uM (Hela)
Work on `O=C1NCC[C@H]1C[C@H](NC(=O)[C@@H]1CC2(CC2)CN1C(=O)C1(NC(=O)C(F)(F)F)CCC(F)(F)CC1)C(=O)COC(F)(F)F` [Compound 680, (S)-5-(4,4-difluoro-1-(2,2,2-trifluoroacetamido)cyclohexane-1-carbonyl)-N-((S)-3-oxo-1-((S)-2-oxopyrrolidin-3-yl)-4-(trifluoromethoxy)butan-2-yl)-5-azaspiro[2.4]heptane-6-carboxamide] yielded an EC50 of 0.2 to 0.5 µM.
